# Test results reported in PMC7385619, “A triple action CDK4/6-PI3K-BET inhibitor with augmented cancer cell cytotoxicity” (Cell Discovery, 2020).
# Read-outs that look alike come from different tables or passages of the source.
# Experiments:
# Assay in all cases: KINOMEscan assay (Eurofins DiscoverX)
# Format in all cases: binding
# kinome (kinase panel) [1] = molecular target: T1, kinome (kinase panel) (Homo sapiens, UniProt Q8WU08); settings: YANK1 (STK32A); 1000 nM; read-out: Percent Control
# T1 construct: purchased Eurofins DiscoverX
# kinome (kinase panel) [2] = molecular target: T2, kinome (kinase panel) (Homo sapiens, UniProt O14730); settings: RIOK3; 1000 nM; read-out: Percent Control
# T2 construct: purchased Eurofins DiscoverX
# kinome (kinase panel) [3] = molecular target: T3, kinome (kinase panel) (Homo sapiens, UniProt O43318); settings: TAK1 (MAP3K7); 1000 nM; read-out: Percent Control
# T3 construct: purchased Eurofins DiscoverX
# kinome (kinase panel) [4] = molecular target: T4, kinome (kinase panel) (Homo sapiens, UniProt Q9H422); settings: HIPK3; 1000 nM; read-out: Percent Control
# T4 construct: purchased Eurofins DiscoverX
# kinome (kinase panel) [5] = molecular target: T5, kinome (kinase panel) (Homo sapiens, UniProt Q9Y6E0); settings: MST3 (Entrez STK24); 1000 nM; read-out: Percent Control
# T5 construct: purchased Eurofins DiscoverX
# kinome (kinase panel) [6] = molecular target: T6, kinome (kinase panel) (Homo sapiens, UniProt Q02779); settings: MLK2 (Entrez MAP3K10); 1000 nM; read-out: Percent Control
# T6 construct: purchased Eurofins DiscoverX
# kinome (kinase panel) [7] = molecular target: T7, kinome (kinase panel) (Homo sapiens, UniProt Q15303); settings: ERBB4; 1000 nM; read-out: Percent Control
# T7 construct: purchased Eurofins DiscoverX
# kinome (kinase panel) [8] = molecular target: T8, kinome (kinase panel) (Homo sapiens, UniProt P00519, H396P)
# T8 construct: purchased Eurofins DiscoverX
# kinome (kinase panel) [9] = molecular target: T9, kinome (kinase panel) (Homo sapiens, UniProt Q13464); settings: ROCK1; 1000 nM; read-out: Percent Control
# T9 construct: purchased Eurofins DiscoverX
# kinome (kinase panel) [10] = molecular target: T10, kinome (kinase panel) (Homo sapiens, UniProt Q13555); settings: CAMK2G; 1000 nM; read-out: Percent Control
# T10 construct: purchased Eurofins DiscoverX
# T10 sequence (Q13555 whole entry): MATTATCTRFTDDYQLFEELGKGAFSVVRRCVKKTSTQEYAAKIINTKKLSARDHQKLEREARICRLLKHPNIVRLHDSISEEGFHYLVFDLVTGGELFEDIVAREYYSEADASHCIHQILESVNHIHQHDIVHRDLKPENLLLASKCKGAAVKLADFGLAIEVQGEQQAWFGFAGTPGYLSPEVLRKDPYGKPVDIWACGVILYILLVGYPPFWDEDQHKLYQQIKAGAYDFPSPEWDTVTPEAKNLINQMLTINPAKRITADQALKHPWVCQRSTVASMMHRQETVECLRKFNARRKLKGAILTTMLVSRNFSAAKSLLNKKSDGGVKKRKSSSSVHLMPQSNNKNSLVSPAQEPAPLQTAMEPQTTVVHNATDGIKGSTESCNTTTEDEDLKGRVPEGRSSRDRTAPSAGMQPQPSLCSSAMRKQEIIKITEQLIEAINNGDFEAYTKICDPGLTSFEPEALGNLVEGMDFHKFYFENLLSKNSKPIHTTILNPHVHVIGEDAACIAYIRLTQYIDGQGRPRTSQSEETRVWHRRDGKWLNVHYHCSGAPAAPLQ
# kinome (kinase panel) [11] = molecular target: T11, kinome (kinase panel) (Homo sapiens, UniProt Q9BQI3); settings: EIF2AK1; 1000 nM; read-out: Percent Control
# T11 construct: purchased Eurofins DiscoverX
# kinome (kinase panel) [12] = molecular target: T12, kinome (kinase panel) (Homo sapiens, UniProt P54646); settings: AMPK-alpha2 (Entrez PRKAA2); 1000 nM; read-out: Percent Control
# T12 construct: purchased Eurofins DiscoverX
# T12 sequence (P54646 whole entry): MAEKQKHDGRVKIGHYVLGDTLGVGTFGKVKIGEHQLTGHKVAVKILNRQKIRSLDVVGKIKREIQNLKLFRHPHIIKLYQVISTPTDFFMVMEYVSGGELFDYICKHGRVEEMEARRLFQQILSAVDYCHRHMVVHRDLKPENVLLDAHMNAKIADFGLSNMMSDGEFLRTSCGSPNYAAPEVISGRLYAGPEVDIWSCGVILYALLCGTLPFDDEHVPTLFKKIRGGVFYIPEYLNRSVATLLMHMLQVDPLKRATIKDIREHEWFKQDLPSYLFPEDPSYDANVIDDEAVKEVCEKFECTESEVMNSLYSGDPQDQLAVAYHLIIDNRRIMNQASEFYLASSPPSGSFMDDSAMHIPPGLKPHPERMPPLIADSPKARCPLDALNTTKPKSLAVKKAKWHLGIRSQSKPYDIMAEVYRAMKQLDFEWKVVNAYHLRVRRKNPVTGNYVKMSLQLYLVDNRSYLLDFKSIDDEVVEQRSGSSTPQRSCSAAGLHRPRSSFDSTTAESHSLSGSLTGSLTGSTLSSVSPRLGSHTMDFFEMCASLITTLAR
# kinome (kinase panel) [13] = molecular target: T13, kinome (kinase panel) (Homo sapiens, UniProt Q8TD19); settings: NEK9; 1000 nM; read-out: Percent Control
# T13 construct: purchased Eurofins DiscoverX
# kinome (kinase panel) [14] = molecular target: T14, kinome (kinase panel) (Homo sapiens, UniProt Q00535); settings: CDK5; 1000 nM; read-out: Percent Control
# T14 construct: purchased Eurofins DiscoverX
# kinome (kinase panel) [15] = molecular target: T15, kinome (kinase panel) (Homo sapiens, UniProt P23443); settings: S6K1 (RPS6KB1); 1000 nM; read-out: Percent Control
# T15 construct: purchased Eurofins DiscoverX
# kinome (kinase panel) [16] = molecular target: T16, kinome (kinase panel) (Homo sapiens, UniProt Q9Y3S1); settings: WNK2; 1000 nM; read-out: Percent Control
# T16 construct: purchased Eurofins DiscoverX
# kinome (kinase panel) [17] = molecular target: T17, kinome (kinase panel) (Homo sapiens, UniProt P48736); settings: PIK3CG; 1000 nM; read-out: Percent Control
# T17 construct: purchased Eurofins DiscoverX
# T17 sequence (P48736 whole entry): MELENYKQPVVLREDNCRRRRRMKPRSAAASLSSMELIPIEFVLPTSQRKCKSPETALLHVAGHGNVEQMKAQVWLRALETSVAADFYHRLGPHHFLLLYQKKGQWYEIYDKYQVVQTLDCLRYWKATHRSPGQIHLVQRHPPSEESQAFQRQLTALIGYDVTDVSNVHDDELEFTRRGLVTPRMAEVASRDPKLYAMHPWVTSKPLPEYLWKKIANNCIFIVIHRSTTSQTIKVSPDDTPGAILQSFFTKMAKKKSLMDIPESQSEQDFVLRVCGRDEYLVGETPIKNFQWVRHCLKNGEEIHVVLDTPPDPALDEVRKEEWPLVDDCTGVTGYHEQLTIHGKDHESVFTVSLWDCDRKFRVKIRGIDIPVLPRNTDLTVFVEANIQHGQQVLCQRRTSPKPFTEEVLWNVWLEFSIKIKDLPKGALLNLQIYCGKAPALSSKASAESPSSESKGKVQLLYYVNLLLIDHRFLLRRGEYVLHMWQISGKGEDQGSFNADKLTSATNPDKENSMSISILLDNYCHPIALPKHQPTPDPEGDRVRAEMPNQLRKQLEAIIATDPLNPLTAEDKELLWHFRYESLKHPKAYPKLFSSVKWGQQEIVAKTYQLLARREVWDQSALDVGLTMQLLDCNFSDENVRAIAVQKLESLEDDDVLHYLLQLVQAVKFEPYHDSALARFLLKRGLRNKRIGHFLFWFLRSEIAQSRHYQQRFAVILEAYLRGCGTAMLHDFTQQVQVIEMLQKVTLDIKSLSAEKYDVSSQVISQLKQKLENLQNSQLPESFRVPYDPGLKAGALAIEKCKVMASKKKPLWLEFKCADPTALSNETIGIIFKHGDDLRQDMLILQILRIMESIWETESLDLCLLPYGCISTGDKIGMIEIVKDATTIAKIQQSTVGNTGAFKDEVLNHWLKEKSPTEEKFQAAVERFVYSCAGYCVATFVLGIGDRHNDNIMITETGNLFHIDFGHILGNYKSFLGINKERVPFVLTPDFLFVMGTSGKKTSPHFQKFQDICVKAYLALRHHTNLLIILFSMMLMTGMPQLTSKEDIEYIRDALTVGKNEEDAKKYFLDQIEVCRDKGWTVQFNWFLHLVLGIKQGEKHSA
# kinome (kinase panel) [18] = molecular target: T18, kinome (kinase panel) (Homo sapiens, UniProt Q15569); settings: TESK1; 1000 nM; read-out: Percent Control
# T18 construct: purchased Eurofins DiscoverX
# kinome (kinase panel) [19] = molecular target: T19, kinome (kinase panel) (Homo sapiens, UniProt Q9UKI8); settings: TLK1; 1000 nM; read-out: Percent Control
# T19 construct: purchased Eurofins DiscoverX
# kinome (kinase panel) [20] = molecular target: T20, kinome (kinase panel) (Homo sapiens, UniProt Q14289); settings: PYK2 (Entrez PTK2B); 1000 nM; read-out: Percent Control
# T20 construct: purchased Eurofins DiscoverX
# kinome (kinase panel) [21] = molecular target: T21, kinome (kinase panel) (Homo sapiens, UniProt O96013); settings: PAK4; 1000 nM; read-out: Percent Control
# T21 construct: purchased Eurofins DiscoverX
# T21 sequence (O96013 whole entry): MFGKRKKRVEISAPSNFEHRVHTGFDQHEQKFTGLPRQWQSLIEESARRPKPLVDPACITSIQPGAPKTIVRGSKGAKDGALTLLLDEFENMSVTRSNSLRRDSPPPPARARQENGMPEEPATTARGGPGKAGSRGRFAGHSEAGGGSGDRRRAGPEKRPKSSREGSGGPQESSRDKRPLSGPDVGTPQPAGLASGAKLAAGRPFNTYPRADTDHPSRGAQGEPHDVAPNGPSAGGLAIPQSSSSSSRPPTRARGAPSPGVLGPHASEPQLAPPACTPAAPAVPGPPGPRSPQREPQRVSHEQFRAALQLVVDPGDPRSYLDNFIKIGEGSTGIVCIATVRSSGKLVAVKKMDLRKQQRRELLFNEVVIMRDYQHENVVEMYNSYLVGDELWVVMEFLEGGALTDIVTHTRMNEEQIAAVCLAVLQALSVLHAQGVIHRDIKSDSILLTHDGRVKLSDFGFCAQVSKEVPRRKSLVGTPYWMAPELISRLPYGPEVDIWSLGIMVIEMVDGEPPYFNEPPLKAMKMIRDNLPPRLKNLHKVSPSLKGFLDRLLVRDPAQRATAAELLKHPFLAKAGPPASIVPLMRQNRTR
# kinome (kinase panel) [22] = molecular target: T22, kinome (kinase panel) (Homo sapiens, UniProt P31751); settings: AKT2; 1000 nM; read-out: Percent Control
# T22 construct: purchased Eurofins DiscoverX
# kinome (kinase panel) [23] = molecular target: T23, kinome (kinase panel) (Homo sapiens, UniProt Q8IVH8); settings: MAP4K3; 1000 nM; read-out: Percent Control
# T23 construct: purchased Eurofins DiscoverX
# kinome (kinase panel) [24] = molecular target: T24, kinome (kinase panel) (Homo sapiens, UniProt P57078); settings: RIPK4; 1000 nM; read-out: Percent Control
# T24 construct: purchased Eurofins DiscoverX
# T24 sequence (P57078 whole entry): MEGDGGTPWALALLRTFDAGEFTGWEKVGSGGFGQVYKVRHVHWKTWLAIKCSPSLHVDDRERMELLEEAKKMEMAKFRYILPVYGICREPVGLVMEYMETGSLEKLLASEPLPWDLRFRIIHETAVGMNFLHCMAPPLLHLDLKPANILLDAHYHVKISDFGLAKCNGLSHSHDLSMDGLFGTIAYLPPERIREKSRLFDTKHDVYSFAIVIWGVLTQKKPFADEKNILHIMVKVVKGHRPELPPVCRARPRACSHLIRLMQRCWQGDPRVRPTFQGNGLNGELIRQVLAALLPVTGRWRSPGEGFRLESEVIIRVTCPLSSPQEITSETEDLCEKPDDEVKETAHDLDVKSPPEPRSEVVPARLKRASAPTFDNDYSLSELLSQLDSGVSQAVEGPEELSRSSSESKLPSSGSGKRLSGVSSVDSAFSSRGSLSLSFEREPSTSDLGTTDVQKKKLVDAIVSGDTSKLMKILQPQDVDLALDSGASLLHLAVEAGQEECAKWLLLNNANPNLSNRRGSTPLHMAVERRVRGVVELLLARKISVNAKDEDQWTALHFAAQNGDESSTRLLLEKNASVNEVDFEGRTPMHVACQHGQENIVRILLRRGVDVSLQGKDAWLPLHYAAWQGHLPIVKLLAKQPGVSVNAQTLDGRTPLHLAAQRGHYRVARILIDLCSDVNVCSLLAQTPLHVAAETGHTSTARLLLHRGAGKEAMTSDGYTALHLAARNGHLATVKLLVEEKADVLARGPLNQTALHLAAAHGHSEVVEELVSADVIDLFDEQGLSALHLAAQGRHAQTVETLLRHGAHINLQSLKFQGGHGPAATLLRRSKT
# kinome (kinase panel) [25] = molecular target: T25, kinome (kinase panel) (Homo sapiens, UniProt Q15831); settings: LKB1 (Entrez STK11); 1000 nM; read-out: Percent Control
# T25 construct: purchased Eurofins DiscoverX
# T25 sequence (Q15831 whole entry): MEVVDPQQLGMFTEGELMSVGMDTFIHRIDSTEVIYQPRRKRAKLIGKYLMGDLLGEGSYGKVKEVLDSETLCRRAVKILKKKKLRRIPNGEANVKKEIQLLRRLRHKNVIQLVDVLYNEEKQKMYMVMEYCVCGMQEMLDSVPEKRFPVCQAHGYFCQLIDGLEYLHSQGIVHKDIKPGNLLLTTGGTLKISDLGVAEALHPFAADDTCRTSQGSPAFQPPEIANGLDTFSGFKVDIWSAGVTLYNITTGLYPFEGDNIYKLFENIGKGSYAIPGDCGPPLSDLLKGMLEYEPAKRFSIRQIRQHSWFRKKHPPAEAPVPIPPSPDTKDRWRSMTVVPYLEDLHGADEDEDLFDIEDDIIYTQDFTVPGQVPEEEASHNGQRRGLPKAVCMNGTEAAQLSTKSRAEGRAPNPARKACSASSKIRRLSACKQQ
# kinome (kinase panel) [26] = molecular target: T26, kinome (kinase panel) (Homo sapiens, UniProt P08581); settings: MET; 1000 nM; read-out: Percent Control
# T26 construct: purchased Eurofins DiscoverX
# kinome (kinase panel) [27] = molecular target: T27, kinome (kinase panel) (Homo sapiens, UniProt Q8NEB9); settings: VPS34 (PIK3C3); 1000 nM; read-out: Percent Control
# T27 construct: purchased Eurofins DiscoverX
# kinome (kinase panel) [28] = molecular target: T28, kinome (kinase panel) (Homo sapiens, UniProt O43683); settings: BUB1; 1000 nM; read-out: Percent Control
# T28 construct: purchased Eurofins DiscoverX
# kinome (kinase panel) [29] = molecular target: T29, kinome (kinase panel) (Homo sapiens, UniProt Q13523); settings: PRP4 (Entrez PRPF4B); 1000 nM; read-out: Percent Control
# T29 construct: purchased Eurofins DiscoverX
# T29 sequence (Q13523 whole entry): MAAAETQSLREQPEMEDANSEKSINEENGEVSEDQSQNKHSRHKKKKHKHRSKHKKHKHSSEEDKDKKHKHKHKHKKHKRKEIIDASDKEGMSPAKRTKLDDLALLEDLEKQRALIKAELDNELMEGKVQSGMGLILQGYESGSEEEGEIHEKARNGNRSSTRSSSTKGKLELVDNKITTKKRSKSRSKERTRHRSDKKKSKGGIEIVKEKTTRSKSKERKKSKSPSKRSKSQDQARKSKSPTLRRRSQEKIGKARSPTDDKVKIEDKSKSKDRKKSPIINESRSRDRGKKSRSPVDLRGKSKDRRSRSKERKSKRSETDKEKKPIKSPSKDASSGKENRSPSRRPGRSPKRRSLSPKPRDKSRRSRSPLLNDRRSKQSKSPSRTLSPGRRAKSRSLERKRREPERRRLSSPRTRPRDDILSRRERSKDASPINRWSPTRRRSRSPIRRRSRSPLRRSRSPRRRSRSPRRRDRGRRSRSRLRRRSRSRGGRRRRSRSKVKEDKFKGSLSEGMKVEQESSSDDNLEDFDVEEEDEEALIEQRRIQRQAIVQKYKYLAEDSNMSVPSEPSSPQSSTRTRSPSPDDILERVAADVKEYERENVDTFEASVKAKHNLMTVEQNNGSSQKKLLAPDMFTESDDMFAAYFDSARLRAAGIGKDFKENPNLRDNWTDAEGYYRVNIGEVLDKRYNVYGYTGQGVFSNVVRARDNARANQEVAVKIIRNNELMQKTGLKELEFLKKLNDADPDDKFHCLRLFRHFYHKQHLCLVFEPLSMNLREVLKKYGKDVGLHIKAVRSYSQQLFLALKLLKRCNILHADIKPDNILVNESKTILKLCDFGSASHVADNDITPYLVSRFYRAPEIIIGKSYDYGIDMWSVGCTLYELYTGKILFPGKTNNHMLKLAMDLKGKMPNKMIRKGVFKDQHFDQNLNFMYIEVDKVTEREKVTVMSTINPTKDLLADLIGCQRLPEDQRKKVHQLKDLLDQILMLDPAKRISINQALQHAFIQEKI
# kinome (kinase panel) [30] = molecular target: T30, kinome (kinase panel) (Homo sapiens, UniProt P00519); settings: 1000 nM, read-out: Percent Control
# T30 construct: purchased Eurofins DiscoverX
# kinome (kinase panel) [31] = molecular target: T31, kinome (kinase panel) (Homo sapiens, UniProt P04049); settings: RAF1; 1000 nM; read-out: Percent Control
# T31 construct: purchased Eurofins DiscoverX
# kinome (kinase panel) [32] = molecular target: T32, kinome (kinase panel) (Homo sapiens, UniProt P51617); settings: IRAK1; 1000 nM; read-out: Percent Control
# T32 construct: purchased Eurofins DiscoverX
structure (smiles),measurement,setting,value
CN(C)C(=O)c1cc2cnc(Nc3ccc(-c4csc5c(=O)cc(N6CCOCC6)oc45)cc3)nc2n1C1CCCC1 [SRX3177],remaining binding at 1 µM,kinome (kinase panel) [1],94%
same,remaining binding at 1 µM,kinome (kinase panel) [2],21%
same,remaining binding at 1 µM,kinome (kinase panel) [3],94%
same,remaining binding at 1 µM,kinome (kinase panel) [4],77%
same,remaining binding at 1 µM,kinome (kinase panel) [5],93%
same,remaining binding at 1 µM,kinome (kinase panel) [6],100%
same,remaining binding at 1 µM,kinome (kinase panel) [7],100%
same,Percent Control,kinome (kinase panel) [8],52
same,remaining binding at 1 µM,kinome (kinase panel) [8]; read-out: Percent Control,57%
same,remaining binding at 1 µM,kinome (kinase panel) [9],87%
same,remaining binding at 1 µM,kinome (kinase panel) [10],65%
same,remaining binding at 1 µM,kinome (kinase panel) [11],79%
same,remaining binding at 1 µM,kinome (kinase panel) [12],98%
same,remaining binding at 1 µM,kinome (kinase panel) [13],100%
same,remaining binding at 1 µM,kinome (kinase panel) [14],90%
same,remaining binding at 1 µM,kinome (kinase panel) [15],95%
same,remaining binding at 1 µM,kinome (kinase panel) [16],77%
same,remaining binding at 1 µM,kinome (kinase panel) [17],85%
same,remaining binding at 1 µM,kinome (kinase panel) [18],87%
same,remaining binding at 1 µM,kinome (kinase panel) [19],94%
same,remaining binding at 1 µM,kinome (kinase panel) [20],100%
same,remaining binding at 1 µM,kinome (kinase panel) [21],84%
same,remaining binding at 1 µM,kinome (kinase panel) [22],98%
same,remaining binding at 1 µM,kinome (kinase panel) [23],100%
same,remaining binding at 1 µM,kinome (kinase panel) [24],58%
same,remaining binding at 1 µM,kinome (kinase panel) [25],85%
same,remaining binding at 1 µM,kinome (kinase panel) [26],80%
same,remaining binding at 1 µM,kinome (kinase panel) [27],46%
same,remaining binding at 1 µM,kinome (kinase panel) [28],50%
same,remaining binding at 1 µM,kinome (kinase panel) [29],58%
same,remaining binding at 1 µM,kinome (kinase panel) [30]; ABL1-nonphosphorylated,78%
same,remaining binding at 1 µM,kinome (kinase panel) [30]; ABL1-phosphorylated,63%
same,remaining binding at 1 µM,kinome (kinase panel) [31],100%
same,remaining binding at 1 µM,kinome (kinase panel) [32],32%
